Source: the supplement of paper PMC11451515

Tested on: SEM cells
Experiment: cell viability relative to DMSO control; higher = less cytotoxic
Settings: 48 h
In short: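 Cells were incubated for 48 h at 37°C before CellTiter-Glo One luminescence was read. The cells were NOMO1 or SEM (500 cells/well) or P12-Ichikawa (1000 cells/well) leukemia cells, adapted for at least four passages in each medium and seeded in 1536-well plates (5 μl). Dosing used library compounds in DMSO applied by pin over 11 threefold points, 47 μM to 0.79 nM. Viability is the per-plate percentage of DMSO wells, with cell-free wells as background.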

[1] = RPMI 5 mM glucose + 10% FBS, 0.000781 µM
[2] = RPMI 5 mM glucose + 10% FBS, 0.00234 µM
[3] = RPMI 5 mM glucose + 10% FBS, 0.00702 µM
[4] = RPMI 5 mM glucose + 10% FBS, 0.0211 µM
[5] = RPMI 5 mM glucose + 10% FBS, 0.0632 µM
[6] = RPMI 5 mM glucose + 10% FBS, 0.19 µM
[7] = RPMI 5 mM glucose + 10% FBS, 0.569 µM
[8] = RPMI 5 mM glucose + 10% FBS, 1.71 µM
[9] = RPMI 5 mM glucose + 10% FBS, 5.12 µM
[10] = RPMI 5 mM glucose + 10% FBS, 15.4 µM
[11] = RPMI 5 mM glucose + 10% FBS, 46.1 µM
[12] = RPMI 5 mM glucose + 10% dialyzed FBS, 0.000781 µM
[13] = RPMI 5 mM glucose + 10% dialyzed FBS, 0.00234 µM
[14] = RPMI 5 mM glucose + 10% dialyzed FBS, 0.00702 µM
[15] = RPMI 5 mM glucose + 10% dialyzed FBS, 0.0211 µM
[16] = RPMI 5 mM glucose + 10% dialyzed FBS, 0.0632 µM
[17] = RPMI 5 mM glucose + 10% dialyzed FBS, 0.19 µM
[18] = RPMI 5 mM glucose + 10% dialyzed FBS, 0.569 µM
[19] = RPMI 5 mM glucose + 10% dialyzed FBS, 1.71 µM
[20] = RPMI 5 mM glucose + 10% dialyzed FBS, 5.12 µM
[21] = RPMI 5 mM glucose + 10% dialyzed FBS, 15.4 µM
[22] = RPMI 5 mM glucose + 10% dialyzed FBS, 46.1 µM
[23] = HPLM + 10% dialyzed FBS, 0.000781 µM
[24] = HPLM + 10% dialyzed FBS, 0.00234 µM
[25] = HPLM + 10% dialyzed FBS, 0.00702 µM
[26] = HPLM + 10% dialyzed FBS, 0.0211 µM
[27] = HPLM + 10% dialyzed FBS, 0.0632 µM
[28] = HPLM + 10% dialyzed FBS, 0.19 µM
[29] = HPLM + 10% dialyzed FBS, 0.569 µM
[30] = HPLM + 10% dialyzed FBS, 1.71 µM
[31] = HPLM + 10% dialyzed FBS, 5.12 µM
[32] = HPLM + 10% dialyzed FBS, 15.4 µM
[33] = HPLM + 10% dialyzed FBS, 46.1 µM

SMILES | cell viability [1] | cell viability [2] | cell viability [3] | cell viability [4] | cell viability [5] | cell viability [6] | cell viability [7] | cell viability [8] | cell viability [9] | cell viability [10] | cell viability [11] | cell viability [12] | cell viability [13] | cell viability [14] | cell viability [15] | cell viability [16] | cell viability [17] | cell viability [18] | cell viability [19] | cell viability [20] | cell viability [21] | cell viability [22] | cell viability [23] | cell viability [24] | cell viability [25] | cell viability [26] | cell viability [27] | cell viability [28] | cell viability [29] | cell viability [30] | cell viability [31] | cell viability [32] | cell viability [33]
C[C@@H](NC(=O)c1ncnc(N)c1Cl)c1ncc(C(=O)Nc2cc(C(F)(F)F)c(Cl)cn2)s1 | 113% | 119% | 105% | 127% | 125% | 126% | 127% | 121% | 121% | 112% | 106% | 123% | 128% | 112% | 126% | 139% | 134% | 135% | 137% | 131% | 119% | 96.2% |  |  |  |  |  |  |  |  |  |  | 
CC1(N2CCC(n3c([C@@H]4CCCNC4)nc4ccccc43)CC2)CCCCCCC1 | 99.3% | 87.8% | 105% | 119% | 121% | 107% | 119% | 116% | 109% | 96.6% | 87.3% | 103% | 78.8% | 98.7% | 111% | 106% | 95.7% | 117% | 113% | 130% | 77.3% | 87.6% | 76.6% | 88.6% | 99.7% | 105% | 105% | 89.3% | 103% | 96% | 92.5% | 72.2% | 42.4%
CC(C)c1ccc(Cn2ccc3c4c(N)nc(NC5CC5)nc4ccc32)cc1 | 107% | 114% | 120% | 80.5% | 106% | 120% | 102% | 110% | 35.5% | 19.5% | 8.49% | 97.7% | 113% | 123% | 80.5% | 125% | 124% | 134% | 119% | 46.7% | 33.3% | 9.93% | 99.5% | 100% | 113% | 100% | 113% | 107% | 67.6% | 53.2% | 37.5% | 31.9% | 6.32%
CC[C@H](C)C(=O)O[C@H]1C[C@H](O)\C=C2\C=C/[C@H](C)[C@H](CC[C@@H](O)C[C@@H](O)CC(O)=O)[C@@H]12 | 98.7% | 110% | 121% | 124% | 113% | 126% | 107% | 118% | 95.8% | 108% | 102% | 123% | 109% | 121% | 125% | 129% | 109% | 121% | 110% | 119% | 120% | 86.2% | 118% | 114% | 116% | 111% | 125% | 129% | 121% | 126% | 103% | 106% | 92.9%
C=CCc1cccc(/C=N/NC(=O)CN2CCN(Cc3ccccc3)CC2)c1O | 124% | 114% | 124% | 122% | 131% | 114% | 131% | 105% | 95.4% | 54.8% | 8.05% |  |  |  |  |  |  |  |  |  |  |  | 124% | 122% | 128% | 137% | 132% | 124% | 144% | 89.4% | 103% | 29.3% | 8.81%
CN(C)CCN(C)C(=O)c1ccc(NC(=O)Nc2ccc(-c3nc(N4CCOCC4)c4ccn(CC(F)(F)F)c4n3)cc2)cc1 | 106% | 81.7% | 96.2% | 117% | 73.7% | 48% | 49.2% | 45.9% | 45.8% | 43.6% | 48.7% | 112% | 110% | 112% | 113% | 87.6% | 75.5% | 63.2% | 60.1% | 56.6% | 51% | 53.3% | 104% | 100% | 120% | 111% | 88% | 63.9% | 65.8% | 48.6% | 52.7% | 50.2% | 54.3%
C[S+](=O)([O-])c1ccc(-c2cnc(N)c(C(=O)Nc3ccccc3)n2)cc1 | 99.1% | 87.6% | 90.7% | 105% | 107% | 133% | 129% | 119% | 103% | 33.1% | 25.3% | 98.5% | 103% | 98.5% | 99.6% | 96.2% | 111% | 99.8% | 105% | 82.7% | 16% | 15.4% | 99.6% | 98.3% | 115% | 107% | 123% | 106% | 127% | 110% | 95.2% | 23.7% | 20.2%
CC[C@]12\C=C/CN3CC[C@]4([C@@H](N(C)C5=CC(=C(C=C45)[C@]6(C[C@H]7C[C@H](CN(C7)CC8=C6[NH]C9=C8C=CC=C9)C(C)(F)F)C(=O)OC)OC)[C@](O)([C@@H]1OC(C)=O)C(=O)OC)[C@H]23 | 120% | 120% | 87.4% | 76.9% | 18.7% | 18.8% | 17.3% | 20.2% | 15.6% | 11.3% | 6.89% | 95.3% | 83% | 74.5% | 68.9% | 43.2% | 21.2% | 16.9% | 18.9% | 21% | 15.3% | 5.17% | 107% | 97.9% | 94.9% | 74.6% | 29.3% | 21.1% | 22% | 22% | 25% | 17.8% | 6.8%
CC[C@H](NC(=O)[C@H](C)NC)C(=O)N1C[C@@H](O)C[C@H]1Cc1c(-c2[nH]c3cc(F)ccc3c2C[C@@H]2C[C@H](O)CN2C(=O)[C@H](CC)NC(=O)[C@H](C)NC)[nH]c2cc(F)ccc12 |  |  |  |  |  |  |  |  |  |  |  |  |  |  |  |  |  |  |  |  |  |  | 90.7% | 122% | 116% | 116% | 136% | 134% | 129% | 134% | 112% | 119% | 88.2%
